# Measurements from patent US8772355B2, “Stealth polymeric particles for delivery of bioactive or diagnostic agents” (Howard University, priority 2010, dated 2014).
# Assay: Preliminary solubility tests
# Type: physicochemical
# Conditions: preliminary solubility tests for both compounds
structure (smiles),measurement,value
"CC(=O)N(C(C)=O)C1=C(Cl)C(=O)c2ccccc2C1=O [Zapp88, 2-chloro-3-diacetylamino-1,4-naphthoquinone]",hydrophobicity compared with paclitaxel,more hydrophobic
